Measurements from US20250338846A1, “COMPOSITIONS HAVING PESTICIDAL UTILITY AND PROCESSES RELATED THERETO” (CORTEVA AGRISCIENCE, LLC, priority 2022, published 2025).

How the values were obtained:
[1] = test system: Western Tarnished Plant Bug (Lygus hesperus, LYGUHE); experiment: Bioassay 4: Western Tarnished Plant Bug, soaked green bean segments, living nymphs 3 days after application; assay type: in vivo
Description: where X=No. of live nymphs on solvent check leaf discs and Y=No. of live nymphs on treated leaf discs. In Table B3 the “Expected % Control” was calculated using the method described in Colby S. R., Weeds, 1967, 15, 20-22. Bioassay 4: Western Tarnished Plant Bug (Lygus hesperus, LYGUHE) (“WTPB”).
(§1) Stock solutions were prepared with Formula One as well as for each of the active ingredients individually. Test solutions were prepared from the stock solutions. Test solutions were prepared containing Formula One, the individual active ingredients, and mixtures of Formula One with each of the active ingredients. The test solution for Formula One was prepared by adding 500 μL of the stock solution to a 25 mL glass vial, then adding 500 μL of acetone, followed by the addition of 9 mL water with 0.025% Tween®) 20 to create a 0.04% (w/v) solution. The test solutions of the individual active ingredients were prepared by adding 500 μL of stock solution to a 25 mL glass vial, then adding 500 μL of acetone, followed by the addition of 9 mL water with 0.025% Tween®) 20 to create a 0.005% (w/v) solution. The test solutions containing mixtures of Formula One and the individual active ingredients were prepared by adding 500 μL of the active ingredient stock solution to a 25 mL glass vial, followed by 500 μL of the Formula One stock solution, then by the addition of 9 mL water with 0.025% Tween®) 20 to create a test solution containing 0.04% (w/v) Formula One and 0.005% (w/v) of the active ingredient. Each test solution was serially diluted to create desired doses of test solutions (0.005% (w/v), 0.00125% (w/v), 0.0003125% (w/v), 0.000078% (w/v), and 0.0000195% (w/v)). In test solutions containing mixtures of Formula One and the active ingredients, the active ingredients were diluted as described above, but the Concentration of Formula One was held constant (0.04% (w/v)).
The test solutions were tested against WTPB using the following procedure: Fresh green beans were cut into segments approximately 1.5 inches long. Four bean segments were added to each 25 mL vial containing the test solutions and soaked for approximately 15 minutes. After soaking, a single bean fragment was removed and placed into a single well of a 32-well rearing tray (Frontier Agricultural Sciences™), on top of a round filter paper disc. A reference treatment (solvent check) was treated with the diluent only. Each treatment was replicated four times and the test treatments were held at approximately 26° C. and ambient relative humidity (RH) prior to grading. Bean segments were allowed to air dry for ˜30 minutes. Three WTPB nymphs were added to and contained in each well with a clear perforated adhesive lid. The total number of living WTPB nymphs was recorded 3 days after application. Scoring was based off the total number of living nymphs out of all four replicates. Percent control was measured using Abbott's correction formula (W. S. Abbott, J. Econ. Entomol. 18 (1925), pp. 265-267) as follows:
(§2) X=No. of live nymphs on solvent check and Y=No. of live nymphs on treated bean segments. In Table B4 the “Expected % Control” was calculated using the method described in Colby S. R., Weeds, 1967, 15, 20-22. Bioassay 5: Neotropical Brown Stink Bug (Euschistus heros, EUSCHE) (“BSB”).

[2] = test system: Neotropical Brown Stink Bug (Euschistus heros, EUSCHE); experiment: whole plant or invertebrate; assay type: in vivo
Description: as §2
as §1, with “The” for “The test solutions of the”, “(0.01%” for “(0.005%”, “0.0025%” for “0.00125%”, “0.000625%” for “0.0003125%”, “0.000156%” for “0.000078%”, “0.000039%” for “0.0000195%”
The test solutions that were tested against BSB were similar to those described above for WTPB. Fresh green beans were cut into segments approximately 1.5 inches long. Four bean segments were added to each test solution and soaked for approximately 15 minutes. After soaking, a single bean fragment was removed and placed into a single well of a 32-well rearing tray (Frontier Agricultural Sciences™), on top of a round filter paper disc. A reference treatment (solvent check) was treated with the diluent only. Each treatment was replicated four times and the test treatments were held at approximately 26° C. and ambient relative humidity (RH) prior to grading. Bean segments were allowed to air dry for ˜30 minutes. Three BSB nymphs were added to and contained in each well with a clear perforated adhesive lid. The total number of living BSB nymphs was recorded 3 days after application. Scoring was based off the total number of living nymphs out of all four replicates. Percent control was measured using Abbott's correction formula (W. S. Abbott, J. Econ. Entomol. 18 (1925), pp. 265-267) as follows:
where X=No. of live nymphs on solvent check and Y=No. of live nymphs on treated bean segments. In Table B5 the “Expected % Control” was calculated using the method described in Colby S. R., Weeds, 1967, 15, 20-22. Bioassay 6: Beet Armyworm (Spodoptera exigua, LAPHEG) (BAW), and Diamondback Moth (Plutella xylostella, PLUTMA) (DBM).

[3] = Euschistus heros, 72 h, AI alone 0.000156 % w/v, read-out: Average % Control AI
[4] = Euschistus heros, 72 h, AI alone 0.000625 % w/v

## Cc1c(COC(=O)[C@@H]2[C@H](/C=C(\Cl)C(F)(F)F)C2(C)C)cccc1-c1ccccc1 (racemic) [Bifenthrin]
[1]; AI alone 0.00125 % w/v
  Average % Control AI: 17%
[2]; [3]
  pest or weed control at 0.000156 % strength: 30%

## CC1(C)[C@H](C(=O)O[C@H](C#N)c2cccc(Oc3ccccc3)c2)[C@@H]1/C=C(\Cl)C(F)(F)F (racemic) [Lambda Cyhalothrin]
[1]; AI alone 0.000078 % w/v
  Average % Control AI: 0%
[2]; [4]
  pest or weed control at 0.000625 % strength: 8%

## COP(=O)(NC(C)=O)SC (centres unmarked) [Acephate]
[1]; AI alone 0.005 % w/v
  Average % Control AI: 0%
[2]; Euschistus heros, 72 h, read-out: Average % Control AI
  pest or weed control at 0.0025 % strength: 0%

## C/C(=N\C#N)N(C)Cc1ccc(Cl)nc1 [Acetamiprid]
[1]; AI alone 0.00125 % w/v
  Average % Control AI: 0%

## CC[S+]([O-])c1c(C#N)nn(-c2c(Cl)cc(C(F)(F)F)cc2Cl)c1N (centres unmarked) [Ethiprole]
[2]; Euschistus heros, 72 h, AI alone 0.0000391 % w/v
  pest or weed control at 3.91e-05 % strength: 0%

## CON=CNC(=O)c1ccc(C2=NOC(c3cc(Cl)cc(Cl)c3)(C(F)(F)F)C2)cc1C (centres unmarked) [Fluxametamide]
[2]; AI alone 0.000625 % w/v
  Average % Control AI: 17%

## CCN(C(=O)CCS(C)(=O)=O)c1sc(-c2cccnc2)nc1Cl [Formula F1, N-(4-chloro-2-(pyridin-3-yl)thiazol-5-yl)-N-ethyl-3-(methylsulfonyl)propanamide]
[2]; F1 alone 0.04 % w/v
  Average % Control F1: 0%

## O=[N+]([O-])NC1=NCCN1Cc1ccc(Cl)nc1 [Imidacloprid]
[1]; AI alone 0.00125 % w/v
  Average % Control AI: 13%
[2]; [4]
  pest or weed control at 0.000625 % strength: 17%

## CN1COCN(Cc2cnc(Cl)s2)/C1=N\[N+](=O)[O-] [Thiamethoxam]
[1]; AI alone 0.0003125 % w/v
  Average % Control AI: 65%
[2]; [3]
  pest or weed control at 0.000156 % strength: 17%

## Abamectin
[1]; AI alone 0.00125 % w/v
  Average % Control AI: 0%
[2]; AI alone 0.000625 % w/v
  Average % Control AI: 17%

## Emamectin Benzoate
[2]; AI alone 0.000156 % w/v
  Average % Control AI: 24%
